Measurements: publication PMC4163640 (2014)

Tests used:
Test in all cases: fluorescence titration
[1] = test system: G4 (DNA, G4) TTTTGGGGTTTT; conditions: K+ 10 mM, Mg2+ 1 mM; 50 mM Tris-borate pH 8.3 (TB), 25 °C; 1:1 model
[2] = test system: G4T4G4 (DNA, G4) GGGGTTTTGGGG; conditions: K+ 5 mM, Li+ 95 mM; 10 mM lithium cacodylate pH 7.2 (5K), 25 °C; 1:1 model
[3] = test system: G8 (DNA, G4) TTTTGGGGGGGGTTTT; conditions: K+ 10 mM, Mg2+ 1 mM; 50 mM Tris-borate pH 8.3 (TB), 25 °C; 1:1 model

Question: `CCc1c(C)c2cc3nc(cc4nc(cc5c(CC)c(C)c(cc1[nH]2)n5C)C(C)=C4CCC(=O)O)C(CCC(=O)O)=C3C` was tested. Which Ka [1] did it give?
Answer: The Ka was “(1.4 ± 0.2) × 10^6 L·mol^-1”.

Question: What about the Ka [2] of the same compound?
Answer: Its Ka is “(1.26 ± 0.07) × 10^7 L·mol^-1”.

Question: And the Ka [3]?
Answer: The Ka was “(1.7 ± 0.2) × 10^6 L·mol^-1”.
